From patent US20260285875A1, “INHIBITORS OF PARG” (858 Therapeutics, Inc., priority 2023, published 2026)

Target: T1, cellular PARG (Homo sapiens, UniProt Q86W56)
T1 construct: endogenous in cells; host or cells: HeLa
Experiment: Nuclear PAR accumulation assay (immunofluorescence high-content imaging, MMS-treated HeLa cells)
Format: cell-based
Details: 1 hour compound then MMS 50 μg/mL for an additional hour
Procedure: HeLa cells were plated at 15,000 cells/well in a 96-well plate the day before compound treatment and then treated with varying concentrations of test compound and incubated for 1 hour at 37° C.+5% CO2. Following test compound treatment, methylmethane sulfonate (MMS) was added to a final concentration of 50 μg/mL and the cells were incubated for an additional hour. Following treatment, the cells were fixed with ice cold 95% methanol and the plates sealed and placed at -20° C. for 15 minutes. The cells were then washed once with phosphate buffered saline (PBS) and permeabilized with 0.10% Triton-X 100 for 20 minutes at room temperature. […] The cells were then washed three times with PBS before incubation with a fluorescently conjugated goat anti-mouse antibody (Invitrogen A32723) diluted 1:500 in 5% FBS+0.1% Tween-20+PBS for 1 hour at room temperature. The cells were again washed three times with PBS and the nuclei labeled by incubating with 1 μg/mL DAPI (4′,6-diamidino-2-phenylindole). Nuclear PAR accumulation was evaluated using high-content fluorescence microscopy. Four fields for each well were acquired at 20× magnification resulting in at least 1,000 cells analyzed per well. […] Both the average intensity per nucleus and percent PAR positive cells were quantified. […] Concentration-response-curves and IC50 values were generated using four parameter logistic curve fit software.
Representative data for exemplary compounds is presented in Table 32, Table 33 and Table 34.

T1 sequence (Q86W56 whole entry): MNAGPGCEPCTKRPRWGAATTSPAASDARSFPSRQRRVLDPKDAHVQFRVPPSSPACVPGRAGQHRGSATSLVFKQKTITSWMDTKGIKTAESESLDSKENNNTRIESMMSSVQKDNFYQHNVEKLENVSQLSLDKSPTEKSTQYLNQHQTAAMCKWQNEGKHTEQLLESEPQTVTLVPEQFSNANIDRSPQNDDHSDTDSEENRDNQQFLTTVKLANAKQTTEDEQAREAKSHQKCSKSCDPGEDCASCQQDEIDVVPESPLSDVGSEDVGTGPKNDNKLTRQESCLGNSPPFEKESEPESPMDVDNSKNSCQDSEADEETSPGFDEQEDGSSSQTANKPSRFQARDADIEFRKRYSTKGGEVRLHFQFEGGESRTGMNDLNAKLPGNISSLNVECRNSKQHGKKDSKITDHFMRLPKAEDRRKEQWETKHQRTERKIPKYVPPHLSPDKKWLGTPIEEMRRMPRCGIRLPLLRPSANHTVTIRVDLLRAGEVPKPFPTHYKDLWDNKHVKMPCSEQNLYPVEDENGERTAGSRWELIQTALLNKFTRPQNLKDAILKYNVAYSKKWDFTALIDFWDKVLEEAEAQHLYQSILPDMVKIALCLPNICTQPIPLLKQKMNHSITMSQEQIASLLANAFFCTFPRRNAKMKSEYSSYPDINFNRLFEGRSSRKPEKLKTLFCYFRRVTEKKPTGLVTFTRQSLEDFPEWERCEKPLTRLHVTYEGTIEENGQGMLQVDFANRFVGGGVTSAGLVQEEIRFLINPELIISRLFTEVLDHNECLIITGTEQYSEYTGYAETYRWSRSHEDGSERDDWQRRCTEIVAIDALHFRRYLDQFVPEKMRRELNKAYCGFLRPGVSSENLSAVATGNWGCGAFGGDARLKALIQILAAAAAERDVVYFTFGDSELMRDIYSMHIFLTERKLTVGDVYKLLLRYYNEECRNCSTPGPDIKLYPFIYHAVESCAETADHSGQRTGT

Row | SMILES | IC50
1 | Cn1cc(CN2C(=O)c3cc(S(=O)(=O)NC4(C)CC4)ccc3N3C2=NC[C@H]3C2CCOCC2)cn1 [Example 44, (R)-4-((1-methyl-1H-pyrazol-4-yl)methyl)-N-(1-methylcyclopropyl)-5-oxo-1-(tetrahydro-2H-pyran-4-yl)-1,2,4,5-tetrahydroimidazo[1,2-a]quinazoline-7-sulfonamide] | 0.1 to 1 µM
2 | C[C@@H]1CN=C2N(C)C(=O)c3cc(S(=O)(=O)NC4(C)CC4)cc(-c4ccccc4CO)c3N21 [Example 62, (R)-9-(2-(hydroxymethyl)phenyl)-1,4-dimethyl-N-(1-methylcyclopropyl)-5-oxo-1,2,4,5-tetrahydroimidazo[1,2-a]quinazoline-7-sulfonamide] | 1 to 10 µM
3 | C[C@@H]1CN=C2N(Cc3cnn(C)c3)C(=O)c3cc(S(=O)(=O)NC4(C)COC4)ccc3N21 [Example 73, (R)-1-methyl-4-((1-methyl-1H-pyrazol-4-yl)methyl)-N-(3-methyloxetan-3-yl)-5-oxo-1,2,4,5-tetrahydroimidazo[1,2-a]quinazoline-7-sulfonamide] | 0.1 to 1 µM
4 | C[C@@H]1CN=C2N(Cc3cnn(C)c3)C(=O)c3cc(S(=O)(=O)NC4(C)CC4)cc(C4CC4)c3N21 [Example 1, (R)-9-cyclopropyl-1-methyl-4-((1-methyl-1H-pyrazol-4-yl)methyl)-N-(1-methylcyclopropyl)-5-oxo-1,2,4,5-tetrahydroimidazo[1,2-a]quinazoline-7-sulfonamide] | < 0.1 µM
5 | CN1C(=O)c2cc(S(=O)(=O)NC3(C)CC3)cc(C3=CCN(C(=O)C4CC4)CC3)c2N2C1=N[C@H]1CCC[C@H]12 [Example 52, (7aS,10aR)-1-(1-(cyclopropanecarbonyl)-1,2,3,6-tetrahydropyridin-4-yl)-6-methyl-N-(1-methylcyclopropyl)-5-oxo-6,7a,8,9,10,10a-hexahydro-5H-cyclopenta[4,5]imidazo[1,2-a]quinazoline-3-sulfonamide] | < 0.1 µM
6 | Cn1cc(CN2C(=O)c3cc(S(=O)(=O)NC4(C)CC4)cc(C4=CCOCC4)c3N3CC(C)(C)N=C23)cn1 [Example 12, 9-(3,6-dihydro-2H-pyran-4-yl)-2,2-dimethyl-4-((1-methyl-1H-pyrazol-4-yl)methyl)-N-(1-methylcyclopropyl)-5-oxo-1,2,4,5-tetrahydroimidazo[1,2-a]quinazoline-7-sulfonamide] | < 0.1 µM
7 | C[C@@H]1CN=C2N(Cc3cn(C)nc3C(F)F)C(=O)c3cc(S(=O)(=O)NC4(C)CC4)ccc3N21 [Example 24, (R)-4-((3-(difluoromethyl)-1-methyl-1H-pyrazol-4-yl)methyl)-1-methyl-N-(1-methylcyclopropyl)-5-oxo-1,2,4,5-tetrahydroimidazo[1,2-a]quinazoline-7-sulfonamide] | < 0.1 µM
8 | C[C@H]1CN(c2cc(S(=O)(=O)NC3(C)CC3)cc3c2N2CC(C)(C)N=C2N(C)C3=O)C[C@H](C)N1 [Example 54, 9-((3S,5S)-3,5-dimethylpiperazin-1-yl)-2,2,4-trimethyl-N-(1-methylcyclopropyl)-5-oxo-1,2,4,5-tetrahydroimidazo[1,2-a]quinazoline-7-sulfonamide] | 0.1 to 1 µM
9 | C#C[C@@H]1CN=C2N(Cc3cnn(C)c3)C(=O)c3cc(S(=O)(=O)NC4(C)CC4)cc(Br)c3N21 [Example 72, (R)-9-bromo-1-ethynyl-4-((1-methyl-1H-pyrazol-4-yl)methyl)-N-(1-methylcyclopropyl)-5-oxo-1,2,4,5-tetrahydroimidazo[1,2-a]quinazoline-7-sulfonamide] | < 0.1 µM
10 | [2H]C([2H])(c1cnn(C)c1)N1C(=O)c2cc(S(=O)(=O)NC3(C)CC3)ccc2N2C1=NC[C@H]2C#CCC(C)C [Example 96, (R)-4-((1-methyl-1H-pyrazol-4-yl)methyl-d2)-N-(1-methylcyclopropyl)-1-(4-methylpent-1-yn-1-yl)-5-oxo-1,2,4,5-tetrahydroimidazo[1,2-a]quinazoline-7-sulfonamide] | < 0.1 µM

Other lines, results leading:

Row | IC50 | SMILES
11 | 0.1 to 1 µM | C[C@@H]1CN(c2cc(S(=O)(=O)NC3(C)CC3)cc3c2N2C(=NC[C@H]2C)N(C)C3=O)C[C@@H](C)O1 [Example 126, (R)-9-((2R,6R)-2,6-dimethylmorpholino)-1,4-dimethyl-N-(1-methylcyclopropyl)-5-oxo-1,2,4,5-tetrahydroimidazo[1,2-a]quinazoline-7-sulfonamide]
12 | 0.1 to 1 µM | CN1C(=O)c2cc(S(=O)(=O)NC3(C)CC3)ccc2N2C1=NCC2C#Cc1ccnc(C(F)(F)F)c1 (stereo not shown) [Example 226, 4-methyl-N-(1-methylcyclopropyl)-5-oxo-1-((2-(trifluoromethyl)pyridin-4-yl)ethynyl)-1,2,4,5-tetrahydroimidazo[1,2-a]quinazoline-7-sulfonamide]
13 | < 0.1 µM | Cn1cc(CN2C(=O)c3cc(S(=O)(=O)NC4(C)CC4)ccc3N3C[C@H](COCc4ccccc4)N=C23)cn1 [Example 154, (R)-2-((benzyloxy)methyl)-4-((1-methyl-1H-pyrazol-4-yl)methyl)-N-(1-methylcyclopropyl)-5-oxo-1,2,4,5-tetrahydroimidazo[1,2-a]quinazoline-7-sulfonamide]
14 | 0.1 to 1 µM | COc1ccc(CN2C(=O)c3cc(S(=O)(=O)NC4(C)CC4)ccc3N3C2=N[C@H]2CCC[C@H]23)cn1 [Example 273, (7aS,10aR)-6-((6-methoxypyridin-3-yl)methyl)-N-(1-methylcyclopropyl)-5-oxo-6,7a,8,9,10,10a-hexahydro-5H-cyclopenta[4,5]imidazo[1,2-a]quinazoline-3-sulfonamide]
15 | < 0.1 µM | Cn1cc(CN2C(=O)c3cc(S(=O)(=O)NC4(C)CC4)ccc3N3C2=NC[C@H]3C#Cc2cccnc2)cn1 [Example 117, (R)-4-((1-methyl-1H-pyrazol-4-yl)methyl)-N-(1-methylcyclopropyl)-5-oxo-1-(pyridin-3-ylethynyl)-1,2,4,5-tetrahydroimidazo[1,2-a]quinazoline-7-sulfonamide]
16 | < 0.1 µM | [2H]C([2H])(c1cnn(C)c1)N1C(=O)c2cc(S(=O)(=O)NC3(C)CC3)ccc2N2C1=NC[C@H]2C#Cc1ncccc1C [Example 242, (R)-4-((1-methyl-1H-pyrazol-4-yl)methyl-d2)-N-(1-methylcyclopropyl)-1-((3-methylpyridin-2-yl)ethynyl)-5-oxo-1,2,4,5-tetrahydroimidazo[1,2-a]quinazoline-7-sulfonamide]
17 | 0.1 to 1 µM | [2H]C([2H])(c1cnn(C)c1)N1C(=O)c2cc(S(=O)(=O)NC3(C)CC3)c(OC)cc2N2C1=N[C@H]1CCC[C@H]12 [Example 213, (7aS,10aR)-2-methoxy-6-((1-methyl-1H-pyrazol-4-yl)methyl-d2)-N-(1-methylcyclopropyl)-5-oxo-6,7a,8,9,10,1Oa-hexahydro-5H-cyclopenta[4,5]imidazo[1,2-a]quinazoline-3-sulfonamide]
18 | < 0.1 µM | [2H]C([2H])(c1cnn(C)c1)N1C(=O)c2cc(S(=O)(=O)NC3(C)CC3)ccc2N2C1=NC[C@H]2C#Cc1cccnc1N [Example 250, (R)-1-((2-aminopyridin-3-yl)ethynyl)-4-((1-methyl-1H-pyrazol-4-yl)methyl-d2)-N-(1-methylcyclopropyl)-5-oxo-1,2,4,5-tetrahydroimidazo[1,2-a]quinazoline-7-sulfonamide]
19 | < 0.1 µM | [2H]C([2H])(c1cnn(C)c1)N1C(=O)c2cc(S(=O)(=O)NC3(C)CC3)ccc2N2C1=NC[C@H]2C#Cc1cncnc1 [Example 246, (R)-4-((1-methyl-1H-pyrazol-4-yl)methyl-d2)-N-(1-methylcyclopropyl)-5-oxo-1-(pyrimidin-5-ylethynyl)-1,2,4,5-tetrahydroimidazo[1,2-a]quinazoline-7-sulfonamide]
